Data reported in patent US20240025922A1, “TETRAHYDROPYRIDO[3,4-d]PYRIMIDINES AS HPK1 INHIBITORS” (Merck Patent GmbH, priority 2022, published 2024).
pIC50: −log10 of the molar value. Read-outs that look alike come from different tables or passages of the source.

Key:
[1] = molecular target: full-length human HPK1 (MAP4K1) (Homo sapiens (Human), UniProt Q92918); assay: HPK1 Kinase Assay (Biochemical Assay), ADP-Glo; conditions: GST-HPK1 3.2 nM, 10 μM ATP, MBP substrate, read-out: HPK1 enzymatic IC50
Outline: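 ADP-Glo luminescence after a 120-min kinase reaction gave percent inhibition and IC50. The enzyme was Sf21-expressed N-terminal GST full-length human HPK1 at 3.2 nM in HEPES pH 7.5 buffer with MgCl2, DTT, Brij-35 and BSA.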

[2] = molecular target: HPK1 (SLP76 phosphorylation at Ser376 in Jurkat and EL-4 cells) (Homo sapiens, UniProt Q92918); format: cell-based
Outline: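 Phospho-SLP76 (Ser376) in lysates measured by AlphaLISA for human Jurkat and by 19 h HTRF for mouse EL-4, giving % inhibition and IC50. Compounds applied 60 min before αCD3/αCD28 bead stimulation at 37 °C, lasting 15 min (Jurkat) or 30 min (EL-4).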

[3] = αCD3/αCD28 Dynabeads stimulated cells, pSLP76 (Ser376) detection; read-out: HPK1 pSLP76 IC50
[4] = read-out: HPK1 pSLP76 IC50; αCD3/αCD28 Dynabeads stimulated cells, pSLP76 (Ser376) detection

Chain of HPK1 (SLP76 phosphorylation at Ser376 in Jurkat and EL-4 cells) (Q92918 whole entry, looked up): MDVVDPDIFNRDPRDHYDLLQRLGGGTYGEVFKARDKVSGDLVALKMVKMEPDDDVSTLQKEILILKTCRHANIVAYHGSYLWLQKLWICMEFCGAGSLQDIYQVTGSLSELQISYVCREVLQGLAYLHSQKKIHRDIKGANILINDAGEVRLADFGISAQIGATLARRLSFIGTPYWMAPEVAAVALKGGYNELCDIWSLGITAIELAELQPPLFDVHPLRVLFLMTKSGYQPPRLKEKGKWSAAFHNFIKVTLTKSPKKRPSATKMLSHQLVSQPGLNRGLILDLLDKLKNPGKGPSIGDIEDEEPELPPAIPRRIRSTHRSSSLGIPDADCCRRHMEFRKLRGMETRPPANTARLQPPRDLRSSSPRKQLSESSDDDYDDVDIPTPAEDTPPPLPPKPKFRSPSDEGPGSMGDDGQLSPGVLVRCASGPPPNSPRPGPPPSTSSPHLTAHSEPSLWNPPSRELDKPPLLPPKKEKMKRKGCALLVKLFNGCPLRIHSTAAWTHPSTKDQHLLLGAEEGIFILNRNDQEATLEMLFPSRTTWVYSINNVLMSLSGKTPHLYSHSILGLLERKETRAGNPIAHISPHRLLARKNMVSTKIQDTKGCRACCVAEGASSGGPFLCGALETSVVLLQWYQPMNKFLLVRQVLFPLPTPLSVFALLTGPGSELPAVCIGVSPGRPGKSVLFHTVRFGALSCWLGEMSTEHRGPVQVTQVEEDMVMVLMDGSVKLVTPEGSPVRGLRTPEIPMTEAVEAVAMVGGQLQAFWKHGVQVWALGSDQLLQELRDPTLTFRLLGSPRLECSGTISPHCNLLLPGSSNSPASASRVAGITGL
Chain of full-length human HPK1 (MAP4K1) (Q92918 whole entry): as the sequence (Q92918 whole entry, looked up) above

SMILES	pIC50 [1]	pIC50 [2, 3]	pIC50 [2, 4]
Cc1c(N2CCc3cnc(Nc4ccc(C5(O)CCN(C)CC5)cc4)cc3C2)cnc2c1NCCO2 [Example 52, 1-methyl-4-(4-((6-(8-methyl-2,3-dihydro-1H-pyrido[2,3-b][1,4]oxazin-7-yl)-5,6,7,8-tetrahydro-2,6-naphthyridin-3-yl)amino)phenyl)piperidin-4-ol]	> 7.00	6.00 to 6.30	
Cc1c(N2CCc3cnc(Nc4ccc(CC(=O)N5CC(N6CCOCC6)C5)cc4)nc3C2)cnc2c1NCCO2 [Example 165, 2-{4-[(7-{8-methyl-1H,2H,3H-pyrido[2,3-b][1,4]oxazin-7-yl}-5H,6H,7H,8H-pyrido[3,4-d]pyrimidin-2-yl)amino]phenyl}-1-[3-(morpholin-4-yl)azetidin-1-yl]ethan-1-one]	> 7.00	> 6.30	
Cc1c(N2CCc3cnc(Nc4ccc5c(c4)CN(C)C5=O)nc3C2)cnc2c1NCCO2 [Example 96, 2-methyl-5-((7-(8-methyl-2,3-dihydro-1H-pyrido[2,3-b][1,4]oxazin-7-yl)-5,6,7,8-tetrahydropyrido[3,4-d]pyrimidin-2-yl)amino)isoindolin-1-one]	> 7.00		< 6.00
CN1CCc2cc(Nc3cc4c(cn3)CCN(c3cnc5c(c3Cl)NCCO5)C4)nn2CC1=O [Example 37, 2-[(6-{8-chloro-1H,2H,3H-pyrido[2,3-b][1,4]oxazin-7-yl}-5,6,7,8-tetrahydro-2,6-naphthyridin-3-yl)amino]-6-methyl-4H,5H,6H,7H,8H-pyrazolo[1,5-d][1,4]diazepin-7-one]	> 7.00	6.00 to 6.30	
Cc1c(N2CCc3cnc(Nc4ccc(N5CCC(OC(F)(F)F)CC5)cc4)nc3C2)cnc2c1NCCO2 [Example 103, 7-(8-methyl-2,3-dihydro-1H-pyrido[2,3-b][1,4]oxazin-7-yl)-N-(4-(4-(trifluoromethoxy)piperidin-1-yl)phenyl)-5,6,7,8-tetrahydropyrido[3,4-d]pyrimidin-2-amine]	> 7.00		< 6.00
COCCOCCS(=O)(=O)c1ccc(Nc2ncc3c(n2)CN(c2cnc4c(c2C)NCCO4)CC3)cc1 [Example 147, N-{4-[2-(2-methoxyethoxy)ethanesulfonyl]phenyl}-7-{8-methyl-1H,2H,3H-pyrido[2,3-b][1,4]oxazin-7-yl}-5H,6H,7H,8H-pyrido[3,4-d]pyrimidin-2-amine]	> 7.00	> 6.30	
COCCOCC(=O)Nc1ccc(Nc2ncc3c(n2)CN(c2cnc4c(c2C)NCCO4)CC3)cc1C [Example 162, 2-(2-methoxyethoxy)-N-{2-methyl-4-[(7-{8-methyl-1H,2H,3H-pyrido[2,3-b][1,4]oxazin-7-yl}-5H,6H,7H,8H-pyrido[3,4-d]pyrimidin-2-yl)amino]phenyl}acetamide]	> 7.00	> 6.30	
Cc1c(N2CCc3cnc(Nc4ccc(C5CCN(C)CC5)c(CO)c4)nc3C2)cnc2c1NCCO2 [Example 107, (5-((7-(8-methyl-2,3-dihydro-1H-pyrido[2,3-b][1,4]oxazin-7-yl)-5,6,7,8-tetrahydropyrido[3,4-d]pyrimidin-2-yl)amino)-2-(1-methylpiperidin-4-yl)phenyl)methanol]	> 7.00	6.00 to 6.30	
COC1CN(C(=O)Cc2ccc(Nc3ncc4c(n3)CN(c3cnc5c(c3C)NCCO5)CC4)cc2)C1 [Example 181, 1-(3-methoxyazetidin-1-yl)-2-{4-[(7-{8-methyl-1H,2H,3H-pyrido[2,3-b][1,4]oxazin-7-yl}-5H,6H,7H,8H-pyrido[3,4-d]pyrimidin-2-yl)amino]phenyl}ethan-1-one]	> 7.00	> 6.30	
Cc1c(N2CCc3cnc(Nc4ccc(NC(=O)CN(C)C)nc4)nc3C2)cnc2c1NCCO2 [Example 56, 2-(dimethylamino)-N-(5-((7-(8-methyl-2,3-dihydro-1H-pyrido[2,3-b][1,4]oxazin-7-yl)-5,6,7,8-tetrahydropyrido[3,4-d]pyrimidin-2-yl)amino)pyridin-2-yl)acetamide]	> 7.00		> 6.30
Cc1c(N2CCc3cnc(Nc4ccc([C@@H](C)S(C)(=O)=O)cc4)nc3C2)cnc2c1NCCO2 (single isomer, unassigned) [Example 158]	> 7.00	> 6.30	
COCCOc1ccc(Nc2ncc3c(n2)CN(c2cnc4c(c2C)NCCO4)CC3)cc1 [Example 98, N-(4-(2-methoxyethoxy)phenyl)-7-(8-methyl-2,3-dihydro-1H-pyrido[2,3-b][1,4]oxazin-7-yl)-5,6,7,8-tetrahydropyrido[3,4-d]pyrimidin-2-amine]	> 7.00	6.00 to 6.30	

Now from value to molecule, other results behind:

pIC50 [1]	pIC50 [2, 3]	SMILES	pIC50 [2, 4]
> 7.00	6.00 to 6.30	CNCc1cccc(Nc2ncc3c(n2)CN(c2cnc4c(c2C)NCCO4)CC3)c1 [Example 46, 7-{8-methyl-1H,2H,3H-pyrido[2,3-b][1,4]oxazin-7-yl}-N-{3-[(methylamino)methyl]phenyl}-5H,6H,7H,8H-pyrido[3,4-d]pyrimidin-2-amine]	
> 7.00	> 6.30	CCc1c(N2CCc3cnc(Nc4ccc(CS(C)(=O)=O)cc4)nc3C2)cnc2c1NCCO2 [Example 145, 7-{8-ethyl-1H,2H,3H-pyrido[2,3-b][1,4]oxazin-7-yl}-N-[4-(methanesulfonylmethyl)phenyl]-5H,6H,7H,8H-pyrido[3,4-d]pyrimidin-2-amine]	
> 7.00	> 6.30	Cc1c(N2CCc3cnc(Nc4ccc([C@H]5CCCS5(=O)=O)cc4)cc3C2)cnc2c1NCCO2 (single isomer, unassigned) [Example 169]	
> 7.00	> 6.30	CS(=O)(=O)Cc1ccc(Nc2ncc3c(n2)CN(c2cnc4c(c2Cl)NCCO4)CC3)cc1 [Example 63, 7-{8-chloro-1H,2H,3H-pyrido[2,3-b][1,4]oxazin-7-yl}-N-[4-(methanesulfonylmethyl)phenyl]-5H,6H,7H,8H-pyrido[3,4-d]pyrimidin-2-amine]	
> 7.00	> 6.30	Cc1cc(Nc2ncc3c(n2)CN(c2cnc4c(c2Cl)NCCO4)CC3)ccc1NC(=O)CN1CCC1 [Example 121, 2-(azetidin-1-yl)-N-(4-((7-(8-chloro-2,3-dihydro-1H-pyrido[2,3-b][1,4]oxazin-7-yl)-5,6,7,8-tetrahydropyrido[3,4-d]pyrimidin-2-yl)amino)-2-methylphenyl)acetamide]	
> 7.00	> 6.30	Cc1c(N2CCc3cnc(Nc4ccc(CC(=O)N(C)C)cc4)nc3C2)cnc2c1NCCO2 [Example 189, N,N-dimethyl-2-{4-[(7-{8-methyl-1H,2H,3H-pyrido[2,3-b][1,4]oxazin-7-yl}-5H,6H,7H,8H-pyrido[3,4-d]pyrimidin-2-yl)amino]phenyl}acetamide]	
> 7.00	6.00 to 6.30	Cc1c(N2CCc3cnc(Nc4ccc(OC[C@@H]5COCCO5)cc4)nc3C2)cnc2c1NCCO2 [Example 90, (S)—N-(4-((1,4-dioxan-2-yl)methoxy)phenyl)-7-(8-methyl-2,3-dihydro-1H-pyrido[2,3-b][1,4]oxazin-7-yl)-5,6,7,8-tetrahydropyrido[3,4-d]pyrimidin-2-amine]	
> 7.00	> 6.30	Cc1c(N2CCc3cnc(Nc4ccc(CC(=O)N5CC6(COC6)C5)cc4)nc3C2)cnc2c1NCCO2 [Example 164, 2-{4-[(7-{8-methyl-1H,2H,3H-pyrido[2,3-b][1,4]oxazin-7-yl}-5H,6H,7H,8H-pyrido[3,4-d]pyrimidin-2-yl)amino]phenyl}-1-{2-oxa-6-azaspiro[3.3]heptan-6-yl}ethan-1-one]	
> 7.00	6.00 to 6.30	Cc1cc(Nc2ncc3c(n2)CN(c2cnc4c(c2C)NCCO4)CC3)cnc1CS(C)(=O)=O [Example 21, 6-(methanesulfonylmethyl)-5-methyl-N-(7-{8-methyl-1H,2H,3H-pyrido[2,3-b][1,4]oxazin-7-yl}-5H,6H,7H,8H-pyrido[3,4-d]pyrimidin-2-yl)pyridin-3-amine]	
> 7.00	> 6.30	Cc1c(N2CCc3cnc(Nc4ccc(Cn5cccn5)cc4)nc3C2)cnc2c1NCCO2 [Example 187, 7-{8-methyl-1H,2H,3H-pyrido[2,3-b][1,4]oxazin-7-yl}-N-{4-[(1H-pyrazol-1-yl)methyl]phenyl}-5H,6H,7H,8H-pyrido[3,4-d]pyrimidin-2-amine]	
> 7.00	> 6.30	Cc1c(N2CCc3cnc(Nc4ccnc(C5CCOCC5)c4)nc3C2)cnc2c1NCCO2 [Example 76, 7-(8-methyl-2,3-dihydro-1H-pyrido[2,3-b][1,4]oxazin-7-yl)-N-(2-(tetrahydro-2H-pyran-4-yl)pyridin-4-yl)-5,6,7,8-tetrahydropyrido[3,4-d]pyrimidin-2-amine]	
> 7.00	> 6.30	Cc1c(N2CCc3cnc(Nc4ccc5c(c4)CCOC5)nc3C2)cnc2c1NCCO2 [Example 84, N-(isochroman-6-yl)-7-(8-methyl-2,3-dihydro-1H-pyrido[2,3-b][1,4]oxazin-7-yl)-5,6,7,8-tetrahydropyrido[3,4-d]pyrimidin-2-amine]	
> 7.00	6.00 to 6.30	Cc1c(N2CCc3cnc(Nc4ccc(C5(S(C)(=O)=O)CC5)nc4)nc3C2)cnc2c1NCCO2 [Example 18, 6-(1-methanesulfonylcyclopropyl)-N-(7-{8-methyl-1H,2H,3H-pyrido[2,3-b][1,4]oxazin-7-yl}-5H,6H,7H,8H-pyrido[3,4-d]pyrimidin-2-yl)pyridin-3-amine]	
